The test system of test [1] is convulsions induced by strychnine in mice. The settings on record: mouse, in vivo.
For test [2], the target named is Glycine receptor (Rattus norvegicus, UniProt P07727). Nature of the test: biochemical. The test is classed as binding.
In test [3] the target is GABA-A receptor. The test is classed as binding, rat. The settings on record: dose displacing 50% of tritiated muscimol; nonlabelled muscimol.

A word on the IC50: it is the midpoint of a concentration-inhibition curve.

Structures are written as SMILES.

Chain of Glycine receptor (P07727 29-457): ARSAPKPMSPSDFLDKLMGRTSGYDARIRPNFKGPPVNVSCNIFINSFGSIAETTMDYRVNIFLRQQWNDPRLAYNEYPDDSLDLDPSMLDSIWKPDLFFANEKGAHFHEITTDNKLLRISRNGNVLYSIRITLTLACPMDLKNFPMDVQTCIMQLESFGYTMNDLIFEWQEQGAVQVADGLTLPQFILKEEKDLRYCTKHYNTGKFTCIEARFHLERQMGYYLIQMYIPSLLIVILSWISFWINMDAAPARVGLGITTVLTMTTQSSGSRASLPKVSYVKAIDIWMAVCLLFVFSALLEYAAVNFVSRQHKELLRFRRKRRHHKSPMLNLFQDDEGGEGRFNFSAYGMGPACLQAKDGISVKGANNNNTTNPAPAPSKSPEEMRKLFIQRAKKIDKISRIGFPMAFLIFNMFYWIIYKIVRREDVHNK
Chain of Glycine receptor (P20781 23-496, further chain): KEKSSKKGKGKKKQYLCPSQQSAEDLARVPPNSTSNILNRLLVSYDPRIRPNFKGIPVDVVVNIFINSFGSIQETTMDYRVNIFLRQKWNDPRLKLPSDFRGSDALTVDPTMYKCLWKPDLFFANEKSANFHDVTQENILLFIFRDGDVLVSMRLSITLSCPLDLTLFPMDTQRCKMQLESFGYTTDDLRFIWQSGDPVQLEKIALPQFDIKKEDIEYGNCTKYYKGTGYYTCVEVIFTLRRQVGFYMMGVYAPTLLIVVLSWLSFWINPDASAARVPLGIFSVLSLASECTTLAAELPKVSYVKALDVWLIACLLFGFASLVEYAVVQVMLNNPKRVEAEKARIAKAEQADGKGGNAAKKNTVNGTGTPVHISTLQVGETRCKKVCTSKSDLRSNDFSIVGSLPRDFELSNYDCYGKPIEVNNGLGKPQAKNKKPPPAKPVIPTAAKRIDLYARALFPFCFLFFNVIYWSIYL

For `CN1C(=O)CN=C(c2ccccc2)c2cc(Cl)ccc21` [Diazepam], in test [1], the “Delay in the appearance of the convulsions” value stood at 3431 and the “Variation (%) of delay” value is “+1190”.

`O=C1C[C@@H]2OCC=C3CN4CC[C@]56c7ccccc7N1[C@H]5[C@H]2[C@H]3C[C@H]46` [strychnine] came in with an IC50 in test [2] of 26.9 nM.

In test [3], `NCc1cc(=O)[nH]o1` [muscimol] returned an IC50 of 8.2 nM. That is a single-digit nanomolar value.

Source of the values: patent US6224850A, “Antiwrinkle cosmetic/pharmaceutical compositions comprising iridaceae extracts” (Societe L'Oreal S.A., priority 1996, dated 2001).
